Data published in ChEMBL document CHEMBL1201862, “PubChem BioAssay data set” (2004).
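48-hour exposure; five concentrations; linearly interpolated endpoints. Here, GI50 denotes the concentration required for 50% inhibition of growth.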 The source made the active and inactive calls. No stated cut-off is given here; in the data, active = GI50 up to about 1.1 µM and inactive = higher.

Columns and labels:
Test in all cases: DTP human tumour cell line panel, 48 h
A549 = system: A549
OVCAR-5 = system: OVCAR-5
SF-539 = system: SF-539
OVCAR-4 = system: OVCAR-4
TK-10 = system: TK-10
UO-31 = system: UO-31
786-0 = system: 786-0
RPMI-8226 = system: RPMI-8226
SK-OV-3 = system: SK-OV-3
M14 = system: M14
HT-29 = system: HT-29
RXF 393 = system: RXF 393
HOP-92 = system: HOP-92
T47D = system: T47D
PC-3 = system: PC-3
MOLT-4 = system: MOLT-4
MDA-MB-435 = system: MDA-MB-435
CAKI-1 = system: CAKI-1
LOX IMVI = system: LOX IMVI
IGROV-1 = system: IGROV-1
SR = system: SR
SW-620 = system: SW-620
SNB-19 = system: SNB-19
NCI-H460 = system: NCI-H460
MCF7 = system: MCF7
MDA-MB-231 = system: MDA-MB-231
COLO 205 = system: COLO 205
Malme-3M = system: Malme-3M
HCC 2998 = system: HCC 2998
HCT-15 = system: HCT-15
HOP-62 = system: HOP-62
SF-268 = system: SF-268
EKVX = system: EKVX
CCRF-CEM = system: CCRF-CEM
NCI/ADR-RES = system: NCI/ADR-RES
ACHN = system: ACHN
NCI-H522 = system: NCI-H522
UACC-257 = system: UACC-257
UACC-62 = system: UACC-62
SK-MEL-2 = system: SK-MEL-2
HCT-116 = system: HCT-116
Hs-578T = system: Hs-578T
U-251 = system: U-251
OVCAR-8 = system: OVCAR-8
SN12C = system: SN12C
NCI-H23 = system: NCI-H23
OVCAR-3 = system: OVCAR-3
BT-549 = system: BT-549
MDA-N = system: MDA-N
K562 = system: K562
NCI-H226 = system: NCI-H226
KM12 = system: KM12
SK-MEL-5 = system: SK-MEL-5
A498 = system: A498
SF-295 = system: SF-295
SNB-75 = system: SNB-75

Measured: GI50

O=C1C2CCCCC2C(=O)N1n1c(Cc2ccccc2)n[nH]c1=O (stereo unspecified)
> 100 µM: HCT-15
inactive: A549 > 100 µM | OVCAR-5 > 100 µM | SF-539 > 100 µM | OVCAR-4 > 100 µM | TK-10 > 100 µM | UO-31 > 100 µM | 786-0 > 100 µM | RPMI-8226 > 100 µM | SK-OV-3 > 100 µM | M14 > 100 µM | HT-29 > 100 µM | RXF 393 > 100 µM | HOP-92 > 100 µM | T47D > 100 µM | PC-3 > 100 µM | MOLT-4 > 100 µM | MDA-MB-435 > 100 µM | CAKI-1 > 100 µM | LOX IMVI > 100 µM | IGROV-1 > 100 µM | SR > 100 µM | SW-620 > 100 µM | SNB-19 > 100 µM | NCI-H460 > 100 µM | MCF7 > 100 µM | MDA-MB-231 > 100 µM | COLO 205 > 100 µM | Malme-3M > 100 µM | HCC 2998 > 100 µM | HOP-62 > 100 µM | SF-268 > 100 µM | EKVX > 100 µM | CCRF-CEM > 100 µM | NCI/ADR-RES > 100 µM | ACHN > 100 µM | NCI-H522 > 100 µM | UACC-257 > 100 µM | UACC-62 > 100 µM | SK-MEL-2 > 100 µM | HCT-116 > 100 µM | Hs-578T > 100 µM | U-251 > 100 µM | OVCAR-8 > 100 µM | SN12C > 100 µM | NCI-H23 > 100 µM | OVCAR-3 > 100 µM | BT-549 > 100 µM | MDA-N > 100 µM | K562 > 100 µM | NCI-H226 > 100 µM | KM12 > 100 µM | SK-MEL-5 > 100 µM | A498 > 100 µM | SF-295 > 100 µM | SNB-75 > 100 µM
